The text below walks through data of the METLIN SMRT retention time set (Domingo-Almenara et al. 2019).

Structures are written as SMILES.

A short description of the data set: gradient 5% acetonitrile 3 min, to 50% in 2 min, to 85% in 15 min, held 3 min, 100 µL/min. The following applies: column: Zorbax Extend-C18 2.1 x 50 mm; eluents: water / acetonitrile, 0.1% formic acid. In outline:
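Retention times come from adduct peaks that were picked computationally and then checked by hand. The standards, pure and pooled in mixtures of ~100 molecules, were run on a Zorbax Extend-C18 column (2.1 × 50 mm, 1.8 μm) at 100 μL/min with water and acetonitrile, each with 0.1% formic acid. Detection was by quadrupole time-of-flight mass spectrometry in positive and negative ionization mode, with a dead volume of 40 μL and a dwell volume of 900 μL.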
`Cc1ccnc(N2CCCC(C(=O)NCC3CCN(Cc4ccccc4C)CC3)C2)n1` (stereo unspecified): the RP-LC retention time is 596 s.
The result for `Cc1ccc(CNC(=O)C2CCCN2S(=O)(=O)c2cc3c(cc2C)NC(=O)C(C)O3)cc1` (stereo unspecified) reads 824 s.
The result for `O=C(Cn1c(=O)oc2ccccc21)N1CCCc2ccccc21` reads 866 s; that for `CC(=O)c1cccc(NC(=O)Nc2cccc(-c3ccc(N4CCCC4)nn3)c2)c1`, 654 s.
The value for `O=C(Nc1ccccn1)C1CCCN(c2ncnc3c2nc2n3CCCCC2)C1` (stereo unspecified) was 675 s; that for `Cc1ccc2c(Nc3ccc4c(c3)OCO4)c(-c3nc(C4CC4)no3)cnc2n1` was 736 s; that for `OC(c1cc(C(F)(F)F)nc2c(Cl)cc(Cl)cc12)C1CCCCN1` (stereo unspecified) was 786 s.
In the case of `O=C(Cn1c(=O)c2cccn2c2ccc(F)cc21)NCC1CCCO1` (stereo unspecified), the RP-LC retention time was 703 s.
The value for `CCOc1cccc(-c2noc(Cc3nnc(-c4ccc(F)cc4)o3)n2)c1` was 1080 s; that for `COCc1nn(CC2CC2)c2c1CN(C(=O)Cc1ccccc1)CC2` was 732 s; that for `NC(=O)c1ccc2c(c1)CCCN2C(=O)c1ccc(Cl)cc1` was 704 s.
`CCOC(=O)c1noc2nc(C)nc(NCCCN3CCN(c4cc(C)ccc4C)CC3)c12` had an RP-LC retention time of 774 s.
The value for `CCS(=O)(=O)N1CCc2nn(Cc3ccccc3)c(=O)n2CC1` was 687 s.
The result for `Cc1ccc(-c2nc3cnccn3c2Nc2cccc(C(F)(F)F)c2)cc1` reads 972 s; that for `CCSc1nnc(NC(=O)CSc2nccn2-c2ccc(OC)cc2OC)s1`, 682 s; that for `COc1ccc(NS(=O)(=O)c2cc3n(c2)CCCNC3=O)cc1`, 615 s.
The result for `Cc1ccccc1NC(=O)N1CCN(c2nc3ccccc3nc2C(F)(F)F)CC1` reads 1070 s; that for `Cc1noc(C)c1CCC(=O)N1CC(c2nc3ccccc3[nH]2)C1`, 552 s.
As to `CC(C)c1nnc(NC(=O)CCCOc2ccc(Cl)cc2)s1`, the RP-LC retention time came out at 876 s.
The value for `COc1cccc(/C=C2\CCc3ccccc3C2=O)c1` was 1200 s; that for `Cc1noc(COC2CCCN(C(=O)c3ccc(Cl)s3)C2)n1` (stereo unspecified) was 801 s.
The value for `CCCN(CCC)c1nc(-c2ccc(Cl)cc2)nc2ccccc12` was 961 s; that for `CCOC(=O)c1cccc(NS(=O)(=O)c2cc(-c3c(C)noc3NC(C)=O)ccc2OC)c1` was 781 s.
The result for `CCCCN1C(=O)C(C)(C(=O)NC2CCN(Cc3ccccc3)CC2)Oc2cccnc21` (stereo unspecified) reads 694 s; that for `COC(=O)c1ccc(C2CC(=O)NC3=C2C(=O)CCC3)cc1` (stereo unspecified), 653 s.
`COc1cc(C(=O)Nc2nc(-c3ccc(Cl)cc3)cs2)cc(OC)c1OC`: the RP-LC retention time is 1120 s.
The value for `O=C(NC1CCCC1)C1c2cccn2CC(=O)N1c1cccc(Cl)c1` (stereo unspecified) was 870 s; that for `CCc1nc2cc(N3CCC(C(=O)Nc4ccc(OC)cc4OC)CC3)cnc2nc1CC` was 877 s; that for `Cc1cccc2nnc(N3CCCN(C(=O)c4cccs4)CC3)n12` was 541 s.
The result for `O=C(Cc1ccsc1)NC1CCc2nnc(C3CC3)n2CC1` (stereo unspecified) reads 594 s; that for `OCc1cnc(SCc2cccc(C(F)(F)F)c2)n1Cc1ccc2c(c1)OCO2`, 649 s; that for `CC1CCN(C(=O)c2cc(S(=O)(=O)N(C)CC(=O)NC(C)C)cn2C)CC1`, 723 s.
`Cc1ccc2c(NC(=O)C(c3ccccc3)c3ccccc3)noc2n1` had an RP-LC retention time of 785 s.
The result for `CCS(=O)(=O)N1CCCc2cc(C(=O)NCCC(C)C)ccc21` reads 884 s; that for `O=C(COc1ccccc1)N1CC(F)(F)C[C@H]1c1nnc(C2CC2)o1`, 768 s; that for `COc1cccc(NC(=O)Nc2cc(-c3cn4cccnc4n3)ccc2OC)c1`, 654 s.
The value for `CCC1CCCCN1C(=O)c1cnc2nc(C)ccc2c1Nc1ccc(OC)cc1` (stereo unspecified) was 665 s.
The result for `CN1CCN(CC(=O)N2CCNC(=O)C2CC(=O)Nc2cccc(C(F)(F)F)c2)CC1` (stereo unspecified) reads 602 s; that for `CC1CC(C)CN(S(=O)(=O)N2CCCC(C(=O)NCc3ccc(F)cc3)C2)C1` (stereo unspecified), 1060 s.
On to `CCC(=O)Nc1ccc(-n2cnc(C(=O)NC3CCC(C)CC3)c2)nc1` (stereo unspecified), for which the RP-LC retention time is 710 s.
The result for `CC(=O)Cc1nsc(NC(=O)c2ccc(C(C)(C)C)cc2)n1` reads 874 s; that for `CCNc1nc(C)cc(N2CCN(C(=O)Nc3cc(Cl)ccc3OC)CC2)n1`, 709 s; that for `CCOC(=O)C1CCCN(CC(O)COc2ccccc2C(C)=O)C1` (stereo unspecified), 556 s.
The value for `CCOC(=O)c1cc(S(=O)(=O)NCCC(=O)N2CCN(c3ccccn3)CC2)cn1C` was 601 s; that for `CC(C)S(=O)(=O)NC[C@H](C)c1ccc(NC(=O)c2cc(F)cc(F)c2)cc1` was 1050 s.
The result for `O=C(CCn1cnc2cc(-c3noc(-c4ccccc4Br)n3)ccc21)N1CCOCC1` reads 743 s; that for `Cc1ccc(Nc2c(-c3ccc(N(C)C)cc3)nc3ccc(Br)cn23)cc1`, 838 s; that for `Cc1noc(CNC(=O)CN(C)c2nc3c(C)ccc(C)c3s2)n1`, 772 s.
For the compound `CS(=O)(=O)Nc1cccc(NC(=O)c2coc(NC(=O)c3ccccc3)n2)c1`, the RP-LC retention time came out at 656 s.
The result for `CCN1CCCC1CNC(=O)c1nnc(-c2ccc(S(=O)(=O)N3CCOCC3)cc2)o1` (stereo unspecified) reads 599 s; that for `CCOc1ccc(S(=O)(=O)N2CCCN(c3ccc(=O)n(-c4ccccc4)n3)CC2)cc1`, 892 s.
The value for `CCOC(=O)c1noc2nc(C)nc(Nc3ccc(CN4CCN(CC)CC4)cc3)c12` was 612 s; that for `Cc1cccc(Cn2cc(S(=O)(=O)N3CCOCC3)ccc2=O)c1` was 789 s; that for `O=C(NCC1(N2CCOCC2)CCOC1)Nc1ccccc1` (stereo unspecified) was 572 s.
With `CC(=O)Nc1ccc(CCc2nc3ccc(C(=O)NC(C)CCc4ccccc4)cc3[nH]2)cc1` (stereo unspecified), the RP-LC retention time turned out to be 682 s.
The result for `Cc1ccc(CNC(=O)NCCCn2c(-c3ccncc3)nc3cccnc32)cc1` reads 651 s; that for `Cc1cnnn1-c1ccc(C(=O)Nc2nccs2)cc1`, 623 s.
The result for `CCN1CCCC1CNC(=O)c1nc(-c2oc3ccc(OC)cc3c2C)no1` (stereo unspecified) reads 682 s; that for `CC(=O)N1CCCN(C2=NS(=O)(=O)C(c3ccccc3)=C2C)CC1`, 665 s.
The result for `CN(C)c1ncncc1N1CCC(C(=O)N2CCN(c3cccc(Cl)c3)CC2)CC1` reads 722 s.
Take `O=c1ccc(-c2cccc(Cl)c2)nn1Cc1nc(-c2cccs2)no1`: the RP-LC retention time was 1000 s.
The value for `COc1ccc2c(c1)[C@H]1OCCC[C@H]1C(c1cccc(O)c1)N2` (stereo partly specified) was 793 s; that for `O=C(NCC(c1cccnc1)N1CCc2ccccc21)C(=O)Nc1ccc2c(c1)OCO2` (stereo unspecified) was 734 s; that for `CCc1nnc(-c2ccc3ccn(CC(=O)N4CCN(c5ccccn5)CC4)c3c2)o1` was 614 s.
The value for `CC1CCN(S(=O)(=O)c2cc(-c3nnc(C4CCCC4)o3)co2)CC1` was 1080 s; that for `CCn1c(=O)c(N2CCC(C(=O)NCCCN3CCCC(C)C3)CC2)nc2cccnc21` (stereo unspecified) was 640 s; that for `O=C(Nc1ccc2c(c1)OCCO2)C1CCN(C(=O)c2cccc(F)c2)CC1` was 697 s.
The value for `CCOc1ccc(CNC(=O)c2cc(S(=O)(=O)N3CCCCC3)c(C)n2C)cc1` was 1020 s.
The compound `Cc1ccc(NC(=O)Cn2cnc(C)c(C)c2=O)cc1` returned an RP-LC retention time of 675 s.
The result for `COc1ccc(NC(=O)c2c(O)c3cccnc3n(-c3ccc(F)cc3)c2=O)cc1F` reads 1210 s.
The value for `Cc1ccccc1-c1csc2c(=O)n(CC(=O)OC(C)(C)C)cnc12` was 1060 s; that for `COc1ccc(N2CCN(CC(O)c3ccc(C)cc3)CC2)cc1` (stereo unspecified) was 677 s.
The result for `Cc1nc2cccnc2n1CC1CCCN(S(=O)(=O)c2ccc(C(C)C)cc2)C1` (stereo unspecified) reads 817 s.
Consider `N[C@@H](Cc1ccc2oc3cc(=O)c4ccccc4c-3nc2c1)C(=O)O`, for which the RP-LC retention time worked out at 611 s.
The result for `Cc1ccccc1-c1nc(N)n(C(=O)C(C)(C)C)n1` reads 1100 s.
The value for `Cc1c(C(=O)O)nnn1-c1ccc2noc(-c3ccccc3)c2c1` was 775 s; that for `CCCNC(=O)C1CCCN(c2ccc(SCC(=O)Nc3cccc(C(=O)OCC)c3)nn2)C1` (stereo unspecified) was 741 s.
The result for `Cc1nnc2ccc(N3CCC(C(=O)NCCCN4CCN(c5ccc(F)cc5)CC4)CC3)nn12` reads 838 s.
The compound `O=C(Cc1nc(-c2ccccn2)n[nH]1)Nc1cc(F)ccc1F` had an RP-LC retention time of 652 s.
The value for `CN(CC1CCOC1)C(=O)c1ccccc1Br` (stereo unspecified) was 697 s.
The result for `CC(=O)Nc1cccc(-c2nc(-c3ccc4c(c3)oc(=O)n4C)no2)c1` reads 819 s.
